PubChem BioAssay AID270 (DTP/NCI, 2004)
Several values for one entry are separate records, joined by “and”; a condition that tells them apart may be missing. Identical values can stand only once. Records with an inconclusive call do not appear.

Test system: BDF1 mice, s.c. Lewis lung carcinoma, T/C %
Test: NCI In Vivo Anticancer Drug Screen. Data for tumor model Lewis Lung Carcinoma (subcutaneous) in B6D2F1 (BDF1) mice
Procedure, shortened: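 Readout: survival or tumor size, expressed as treated (T) over vehicle control (C). Transplantable tumor implanted in mice; compound given to the treated group.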

[1] = endpoint: median survival time, dose: 25.0 mg/kg/injection, schedule: Q01DX009 (ip), vehicle: Klucel (hydroxypropylcellulose) (HPC), higher = longer survival
[2] = endpoint: median survival time, dose: 50.0 mg/kg/injection, schedule: Q01DX009 (ip), vehicle: Klucel (hydroxypropylcellulose) (HPC), higher = longer survival
[3] = endpoint: median survival time, dose: 100.0 mg/kg/injection, schedule: Q01DX009 (ip), vehicle: Klucel (hydroxypropylcellulose) (HPC), higher = longer survival
[4] = endpoint: median survival time, dose: 400.0 mg/kg/injection, schedule: Q01DX009 (ip), vehicle: Klucel (hydroxypropylcellulose) (HPC), higher = longer survival
[5] = endpoint: mean tumor weight, dose: 15.0 mg/kg/injection, schedule: Q01DX011 (ip), vehicle: carboxymethylcellulose (CMC), higher = larger tumour
[6] = endpoint: mean tumor weight, dose: 120.0 mg/kg/injection, schedule: Q01DX011 (ip), vehicle: carboxymethylcellulose (CMC), higher = larger tumour
[7] = endpoint: median survival time, dose: 25.0 mg/kg/injection, schedule: Q01DX009 (ip), vehicle: saline with Tween-80, higher = longer survival

## CC(=N\O)/C(C)=N/O.CC(=N\O)/C(C)=N/O.[Pd]
endpoint: median survival time, dose: 0.75 mg/kg/injection, schedule: Q01DX009 (ip), vehicle: Klucel (hydroxypropylcellulose) (HPC), higher = longer survival
  T/C: 109 % of control
endpoint: median survival time, dose: 1.57 mg/kg/injection, schedule: Q01DX009 (ip), vehicle: Klucel (hydroxypropylcellulose) (HPC), higher = longer survival
  T/C: 97 % of control

## O=C1CC(c2ccc(O)cc2)CC(=O)C1C(C1CC=CCC1)N(CCCl)CCCl (configuration not stated)
[1]
  T/C: 122 % of control
[2]
  T/C: 123 % of control
[3]
  T/C: 115 % of control
endpoint: median survival time, dose: 200.0 mg/kg/injection, schedule: Q01DX009 (ip), vehicle: Klucel (hydroxypropylcellulose) (HPC), higher = longer survival
  T/C: 111 % of control
[4]
  T/C: 98 % of control

## O=C1N[C@@H]([C@H]2CC[C@H](Cl)CN2)C(=O)N[C@H]1[C@H]1CC[C@H](Cl)CN1
endpoint: median survival time, dose: 2.7 mg/kg/injection, schedule: Q01DX009 (ip), vehicle: saline, higher = longer survival
  T/C: 102 % of control
endpoint: median survival time, dose: 4.4 mg/kg/injection, schedule: Q04DX003 (ip), vehicle: saline, higher = longer survival
  T/C: 99 % of control
endpoint: median survival time, dose: 6.5 mg/kg/injection, schedule: Q04DX003 (ip), vehicle: saline, higher = longer survival
  T/C: 105 % of control
endpoint: median survival time, dose: 9.0 mg/kg/injection, schedule: Q01DX001 (ip), vehicle: saline, higher = longer survival
  T/C: 91 % of control
endpoint: median survival time, dose: 13.0 mg/kg/injection, schedule: Q01DX001 (ip), vehicle: saline, higher = longer survival
  T/C: 101 % of control
endpoint: median survival time, dose: 20.0 mg/kg/injection, schedule: Q01DX001 (ip), vehicle: saline, higher = longer survival
  T/C: 100 % of control

## Fc1ccc(CSc2ncnc3c2ncn3C2CCCCO2)cc1 (configuration not stated)
endpoint: mean tumor weight, dose: 200.0 mg/kg/injection, schedule: Q01DX011 (ip), vehicle: other, higher = larger tumour
  T/C: 73 % of control
endpoint: mean tumor weight, dose: 400.0 mg/kg/injection, schedule: Q01DX011 (ip), vehicle: other, higher = larger tumour
  T/C: 33 % of control

## C=CCn1c(=O)n(CC=C)c(=O)n(CC=C)c1=O
[5]
  T/C: 82 % of control
[6]
  T/C: 112 % of control
endpoint: mean tumor weight, dose: 240.0 mg/kg/injection, schedule: Q01DX011 (ip), vehicle: carboxymethylcellulose (CMC), higher = larger tumour
  T/C: 67 % of control

## Nc1ccc(O)cc1
endpoint: mean tumor weight, dose: 37.5 mg/kg/injection, schedule: Q01DX011 (ip), vehicle: saline, higher = larger tumour
  T/C: 96 % of control
endpoint: mean tumor weight, dose: 300.0 mg/kg/injection, schedule: Q01DX011 (ip), vehicle: saline, higher = larger tumour
  T/C: 26 % of control

## O=C(O)Cc1ccc(C2CCCCC2)cc1
endpoint: mean tumor weight, dose: 150.0 mg/kg/injection, schedule: Q01DX011 (ip), vehicle: carboxymethylcellulose (CMC), higher = larger tumour
  T/C: 67 % of control
endpoint: mean tumor weight, dose: 225.0 mg/kg/injection, schedule: Q01DX011 (ip), vehicle: carboxymethylcellulose (CMC), higher = larger tumour
  T/C: 88 % of control
endpoint: mean tumor weight, dose: 335.0 mg/kg/injection, schedule: Q01DX011 (ip), vehicle: carboxymethylcellulose (CMC), higher = larger tumour
  T/C: 100 % of control

## Cn1c(O)c(N=NC(N)=S)c2ccccc21
[5]
  T/C: 70 % of control
[6]
  T/C: 77 % of control and 82 % of control
endpoint: mean tumor weight, dose: 360.0 mg/kg/injection, schedule: Q01DX011 (ip), vehicle: carboxymethylcellulose (CMC), higher = larger tumour
  T/C: 57 % of control
endpoint: mean tumor weight, dose: 500.0 mg/kg/injection, schedule: Q01DX011 (ip), vehicle: carboxymethylcellulose (CMC), higher = larger tumour
  T/C: 52 % of control

## CCOC(=O)C1=NNC(=O)C1
endpoint: mean tumor weight, dose: 222.0 mg/kg/injection, schedule: Q01DX011 (ip), vehicle: other, higher = larger tumour
  T/C: 119 % of control
endpoint: mean tumor weight, dose: 333.0 mg/kg/injection, schedule: Q01DX011 (ip), vehicle: other, higher = larger tumour
  T/C: 118 % of control
endpoint: mean tumor weight, dose: 500.0 mg/kg/injection, schedule: Q01DX011 (ip), vehicle: other, higher = larger tumour
  T/C: 75 % of control
endpoint: mean tumor weight, dose: 750.0 mg/kg/injection, schedule: Q01DX011 (ip), vehicle: other, higher = larger tumour
  T/C: 108 % of control

## Cc1cnc(/C=N\NC(N)=S)c2cccc(N)c12
endpoint: median survival time, dose: 6.25 mg/kg/injection, schedule: Q01DX009 (ip), vehicle: Klucel (hydroxypropylcellulose) (HPC), higher = longer survival
  T/C: 112 % of control
endpoint: median survival time, dose: 6.25 mg/kg/injection, schedule: Q01DX009 (ip), vehicle: saline with Tween-80, higher = longer survival
  T/C: 106 % of control
endpoint: median survival time, dose: 12.5 mg/kg/injection, schedule: Q01DX009 (ip), vehicle: Klucel (hydroxypropylcellulose) (HPC), higher = longer survival
  T/C: 90 % of control
endpoint: median survival time, dose: 12.5 mg/kg/injection, schedule: Q01DX009 (ip), vehicle: saline with Tween-80, higher = longer survival
  T/C: 110 % of control
[1]
  T/C: 86 % of control
[7]
  T/C: 117 % of control
[2]
  T/C: 95 % of control

## COc1cc(N(CCCl)CCCl)ccc1NC(=O)c1ccccc1
endpoint: mean tumor weight, dose: 12.5 mg/kg/injection, schedule: Q01DX011 (ip), vehicle: Klucel (hydroxypropylcellulose) (HPC), higher = larger tumour
  T/C: 68 % of control
endpoint: mean tumor weight, dose: 25.0 mg/kg/injection, schedule: Q01DX011 (ip), vehicle: Klucel (hydroxypropylcellulose) (HPC), higher = larger tumour
  T/C: 48 % of control

## C/C(=C\c1ccc(C)cc1)[N+](=O)[O-]
[7]
  T/C: 96 % of control
endpoint: median survival time, dose: 50.0 mg/kg/injection, schedule: Q01DX009 (ip), vehicle: saline with Tween-80, higher = longer survival
  T/C: 95 % of control
endpoint: median survival time, dose: 100.0 mg/kg/injection, schedule: Q01DX009 (ip), vehicle: saline with Tween-80, higher = longer survival
  T/C: 94 % of control

## CN(C)C(=O)N(CCCl)N=O
endpoint: median survival time, dose: 6.25 mg/kg/injection, schedule: Q01DX001 (ip), vehicle: water, higher = longer survival
  T/C: 102 % of control
endpoint: median survival time, dose: 12.5 mg/kg/injection, schedule: Q01DX001 (ip), vehicle: water, higher = longer survival
  T/C: 112 % of control

## CN1C(=O)C=CC1=O
endpoint: median survival time, dose: 0.5 mg/kg/injection, schedule: Q02DX009 (ip), vehicle: saline, higher = longer survival
  T/C: 113 % of control
endpoint: median survival time, dose: 1.0 mg/kg/injection, schedule: Q02DX009 (ip), vehicle: saline, higher = longer survival
  T/C: 103 % of control
endpoint: median survival time, dose: 2.0 mg/kg/injection, schedule: Q02DX009 (ip), vehicle: saline, higher = longer survival
  T/C: 100 % of control
endpoint: median survival time, dose: 4.0 mg/kg/injection, schedule: Q02DX009 (ip), vehicle: saline, higher = longer survival
  T/C: 94 % of control

## O=C1NC2(CCCCC2)C(=O)N1CCN(CCCl)CCCl
endpoint: median survival time, dose: 1.5 mg/kg/injection, schedule: Q01DX009 (ip), vehicle: Klucel (hydroxypropylcellulose) (HPC), higher = longer survival
  T/C: 98 % of control
endpoint: median survival time, dose: 1.5 mg/kg/injection, schedule: Q01DX009 (ip), vehicle: saline, higher = longer survival
  T/C: 91 % of control
endpoint: median survival time, dose: 1.56 mg/kg/injection, schedule: Q01DX009 (ip), vehicle: saline, higher = longer survival
  T/C: 87 % of control and 93 % of control
endpoint: median survival time, dose: 3.0 mg/kg/injection, schedule: Q01DX009 (ip), vehicle: Klucel (hydroxypropylcellulose) (HPC), higher = longer survival
  T/C: 104 % of control
endpoint: median survival time, dose: 3.0 mg/kg/injection, schedule: Q01DX009 (ip), vehicle: saline, higher = longer survival
  T/C: 89 % of control
endpoint: median survival time, dose: 3.12 mg/kg/injection, schedule: Q01DX009 (ip), vehicle: saline, higher = longer survival
  T/C: 100 % of control
endpoint: median survival time, dose: 6.0 mg/kg/injection, schedule: Q01DX009 (ip), vehicle: saline, higher = longer survival
  T/C: 106 % of control
endpoint: median survival time, dose: 6.25 mg/kg/injection, schedule: Q01DX009 (ip), vehicle: saline, higher = longer survival
  T/C: 111 % of control
endpoint: median survival time, dose: 12.0 mg/kg/injection, schedule: Q01DX009 (ip), vehicle: saline, higher = longer survival
  T/C: 89 % of control
endpoint: median survival time, dose: 12.5 mg/kg/injection, schedule: Q01DX009 (ip), vehicle: saline, higher = longer survival
  T/C: 97 % of control

## N#Cc1ccc(S(N)(=O)=O)cc1
endpoint: mean tumor weight, dose: 6.2 mg/kg/injection, schedule: Q01DX011 (ip), vehicle: carboxymethylcellulose (CMC), higher = larger tumour
  T/C: 52 % of control
endpoint: mean tumor weight, dose: 12.5 mg/kg/injection, schedule: Q01DX011 (ip), vehicle: carboxymethylcellulose (CMC), higher = larger tumour
  T/C: 66 % of control

## O=c1[nH]c2cc(Cl)c(Cl)cc2o1
endpoint: mean tumor weight, dose: 22.0 mg/kg/injection, schedule: Q01DX011 (ip), vehicle: carboxymethylcellulose (CMC), higher = larger tumour
  T/C: 79 % of control
endpoint: mean tumor weight, dose: 35.0 mg/kg/injection, schedule: Q01DX011 (ip), vehicle: carboxymethylcellulose (CMC), higher = larger tumour
  T/C: 93 % of control
endpoint: mean tumor weight, dose: 50.0 mg/kg/injection, schedule: Q01DX011 (ip), vehicle: carboxymethylcellulose (CMC), higher = larger tumour
  T/C: 95 % of control
endpoint: mean tumor weight, dose: 75.0 mg/kg/injection, schedule: Q01DX011 (ip), vehicle: carboxymethylcellulose (CMC), higher = larger tumour
  T/C: 77 % of control and 84 % of control
endpoint: mean tumor weight, dose: 115.0 mg/kg/injection, schedule: Q01DX011 (ip), vehicle: carboxymethylcellulose (CMC), higher = larger tumour
  T/C: 114 % of control

## Fc1ccc(NC(=S)Nc2cc(Cl)cc(Cl)c2)cc1
endpoint: mean tumor weight, dose: 7.5 mg/kg/injection, schedule: Q01DX011 (ip), vehicle: carboxymethylcellulose (CMC), higher = larger tumour
  T/C: 60 % of control

## O=C(O)C1(NO)CCCC1
endpoint: mean tumor weight, dose: 55.0 mg/kg/injection, schedule: Q01DX011 (ip), vehicle: saline, higher = larger tumour
  T/C: 73 % of control
endpoint: mean tumor weight, dose: 83.0 mg/kg/injection, schedule: Q01DX011 (ip), vehicle: saline, higher = larger tumour
  T/C: 29 % of control
endpoint: mean tumor weight, dose: 125.0 mg/kg/injection, schedule: Q01DX011 (ip), vehicle: saline, higher = larger tumour
  T/C: 27 % of control

## N#C/C(=C\c1ccncc1)c1csc2ccccc12
[2]
  T/C: 119 % of control
[3]
  T/C: 97 % of control
[4]
  T/C: 110 % of control

## O=NN(CCCl)C(=O)Nc1ncc([N+](=O)[O-])s1
endpoint: median survival time, dose: 154.0 mg/kg/injection, schedule: Q01DX001 (ip), vehicle: other, higher = longer survival
  T/C: 112 % of control

## OCc1ccccc1OC1OC(CO)C(O)C(O)C1O (configuration not stated)
endpoint: mean tumor weight, dose: 100.0 mg/kg/injection, schedule: Q01DX011 (ip), vehicle: carboxymethylcellulose (CMC), higher = larger tumour
  T/C: 106 % of control
endpoint: mean tumor weight, dose: 200.0 mg/kg/injection, schedule: Q01DX011 (ip), vehicle: carboxymethylcellulose (CMC), higher = larger tumour
  T/C: 86 % of control
endpoint: mean tumor weight, dose: 400.0 mg/kg/injection, schedule: Q01DX011 (ip), vehicle: carboxymethylcellulose (CMC), higher = larger tumour
  T/C: 100 % of control
